Laboratory results published in PubChem BioAssay AID330 (DTP/NCI, 2004).
Where “and” joins values, the source holds several entries; their conditions need not be identical. Identical values can stand only once. Toxic doses and inconclusive results are not listed.

System: P388 leukemia ip, CD2F1 mice, survival T/C
Experiment: NCI In Vivo Anticancer Drug Screen. Data for tumor model P388 Leukemia (intraperitoneal) in CD2F1 (CDF1) mice
Details: endpoint: median survival time, higher = longer survival
How it was run: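 Mice carrying the transplanted tumor received test compound or vehicle. Survival was recorded in each group, and the value is the treated-group measurement divided by that of the vehicle-treated control group.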

[1] = dose: 25.0 mg/kg/injection, schedule: Q01DX009 (ip), vehicle: saline with Tween-80
[2] = dose: 50.0 mg/kg/injection, schedule: Q01DX005 (ip), vehicle: saline with Tween-80
[3] = dose: 60.0 mg/kg/injection, schedule: Q01DX005 (ip), vehicle: saline with Tween-80
[4] = dose: 120.0 mg/kg/injection, schedule: Q01DX005 (ip), vehicle: saline with Tween-80
[5] = dose: 240.0 mg/kg/injection, schedule: Q01DX005 (ip), vehicle: saline with Tween-80
[6] = dose: 50.0 mg/kg/injection, schedule: Q01DX009 (ip), vehicle: saline with Tween-80
[7] = dose: 100.0 mg/kg/injection, schedule: Q01DX009 (ip), vehicle: saline with Tween-80
[8] = dose: 200.0 mg/kg/injection, schedule: Q01DX009 (ip), vehicle: saline with Tween-80
[9] = dose: 100.0 mg/kg/injection, schedule: Q01DX001 (ip), vehicle: saline with Tween-80
[10] = dose: 25.0 mg/kg/injection, schedule: Q01DX009 (ip), vehicle: water
[11] = dose: 50.0 mg/kg/injection, schedule: Q01DX009 (ip), vehicle: water
[12] = dose: 50.0 mg/kg/injection, schedule: Q01DX009 (ip), vehicle: saline
[13] = dose: 50.0 mg/kg/injection, schedule: Q01DX005 (ip), vehicle: Klucel (hydroxypropylcellulose) (HPC)
[14] = dose: 100.0 mg/kg/injection, schedule: Q01DX005 (ip), vehicle: Klucel (hydroxypropylcellulose) (HPC)
[15] = dose: 200.0 mg/kg/injection, schedule: Q01DX005 (ip), vehicle: Klucel (hydroxypropylcellulose) (HPC)
[16] = dose: 100.0 mg/kg/injection, schedule: Q01DX005 (ip), vehicle: saline with Tween-80
[17] = dose: 200.0 mg/kg/injection, schedule: Q01DX005 (ip), vehicle: saline with Tween-80

`Cc1cc2nc3n(c2cc1C)C(=O)c1cc2ccccc2cc1-3` was tested, and the T/C (dose: 3.12 mg/kg/injection, schedule: Q01DX009 (ip), vehicle: saline with Tween-80) was 97 % of control, the T/C (dose: 6.25 mg/kg/injection, schedule: Q01DX009 (ip), vehicle: saline with Tween-80) was 94 % of control and the T/C [1] was 88 % of control.

With `Clc1ccc(-c2nnc(Nc3ccnc4cc(Cl)ccc34)s2)cc1` the T/C (dose: 12.5 mg/kg/injection, schedule: Q01DX005 (ip), vehicle: saline with Tween-80) was 96 % of control, the T/C (dose: 25.0 mg/kg/injection, schedule: Q01DX005 (ip), vehicle: saline with Tween-80) was 96 % of control and the T/C [2] was 99 % of control and 102 % of control.

For `CC1(C)CCCC(C)(C(=O)O)O1` (stereo unspecified), the T/C [3] was 104 % of control, the T/C [4] was 101 % of control and the T/C [5] was 104 % of control.

In the case of `O=C1c2ccccc2C(=O)c2c(Cl)ccc(O)c21`, the T/C [6] is reported as 98 % of control and 94 % of control, the T/C [7] is reported as 99 % of control and 92 % of control and the T/C [8] is reported as 104 % of control and 112 % of control. For the same molecule, the T/C (dose: 400.0 mg/kg/injection, schedule: Q01DX009 (ip), vehicle: saline with Tween-80) was 111 % of control and 112 % of control.

With `Cc1ccc(S(=O)(=O)NNC(=O)CCn2[nH]c(=O)c(Cl)c(Cl)c2=O)cc1` the T/C [3] was 99 % of control, the T/C [4] was 103 % of control and the T/C [5] was 98 % of control.

In the case of `CC1=CC(=O)C=CC1(C)C(Cl)(Cl)Cl` (stereo unspecified), the T/C [6] is reported as 110 % of control, the T/C [7] is reported as 110 % of control and the T/C [8] is reported as 105 % of control.

`CN(C)CC(CN(C)C)C(=O)c1ccc(O)cc1` was tested, and the T/C (dose: 6.25 mg/kg/injection, schedule: Q01DX005 (ip), vehicle: saline) was 118 % of control, the T/C (dose: 12.5 mg/kg/injection, schedule: Q01DX005 (ip), vehicle: saline) was 105 % of control and the T/C (dose: 25.0 mg/kg/injection, schedule: Q01DX005 (ip), vehicle: saline) was 110 % of control.

`NC1CC2(CCC1=O)c1ccccc1-c1ccccc12` (stereo unspecified) was tested, and the T/C [9] was 105 % of control and the T/C (dose: 400.0 mg/kg/injection, schedule: Q01DX001 (ip), vehicle: saline with Tween-80) was 102 % of control.

With `CC(=O)Nc1ccc(S(=O)(=O)Nc2cnccn2)cc1` the T/C [9] was 93 % of control.

In the case of `COc1cccc(CN2CCNCC2)c1`, the T/C (dose: 6.25 mg/kg/injection, schedule: Q01DX009 (ip), vehicle: water) is reported as 90 % of control, the T/C (dose: 12.5 mg/kg/injection, schedule: Q01DX009 (ip), vehicle: water) is reported as 94 % of control and the T/C [10] is reported as 93 % of control. For the same molecule, the T/C [11] was 94 % of control.

For `O=C(O)C1CSC(c2cccnc2)N1` (stereo unspecified), the T/C [12] was 89 % of control and the T/C (dose: 100.0 mg/kg/injection, schedule: Q01DX009 (ip), vehicle: saline) was 90 % of control.

With `COc1ccc2c(c1)CN1C(CCC3c4ccccc4NC31)C2` (stereo unspecified) the T/C [3] was 99 % of control, the T/C [4] was 95 % of control and the T/C [5] was 95 % of control.

For `O=C(Nc1ccc(C(=O)O)cc1)Nc1cc(C(F)(F)F)ccc1Cl`, the T/C [3] was 105 % of control, the T/C [4] was 105 % of control and the T/C [5] was 105 % of control.

`O=[N+]([O-])c1cc2c(c([N+](=O)[O-])c1)OC(C(Cl)(Cl)Cl)OC2C(Cl)(Cl)Cl` (stereo unspecified) was tested, and the T/C [13] was 107 % of control, the T/C [14] was 103 % of control and the T/C [15] was 117 % of control.

`O=C(O)c1cc2cccc([N+](=O)[O-])c2[se]1` was tested, and the T/C (dose: 50.0 mg/kg/injection, schedule: Q01DX009 (ip), vehicle: suspension in saline) was 106 % of control, the T/C (dose: 100.0 mg/kg/injection, schedule: Q01DX009 (ip), vehicle: suspension in saline) was 96 % of control and the T/C (dose: 200.0 mg/kg/injection, schedule: Q01DX009 (ip), vehicle: suspension in saline) was 113 % of control.

In the case of `O=[N+]([O-])/C=C/c1cc2c(cc1Br)OCO2`, the T/C (dose: 100.0 mg/kg/injection, schedule: Q04DX003 (ip), vehicle: saline with Tween-80) is reported as 113 % of control and the T/C (dose: 200.0 mg/kg/injection, schedule: Q04DX003 (ip), vehicle: saline with Tween-80) is reported as 113 % of control.

`CCOC(=O)Nc1cc(NC(c2ccccc2)c2ccccc2)c2[nH]cnc2n1` was tested, and the T/C [1] was 88 % of control, the T/C [6] was 88 % of control and the T/C [7] was 117 % of control. For the same molecule, the T/C [8] was 96 % of control.

With `O=C(NC(O)C(Cl)(Cl)Cl)C(Cl)(Cl)Cl` (stereo unspecified) the T/C [2] was 100 % of control, the T/C [16] was 95 % of control and the T/C [17] was 107 % of control.

In the case of `O=C(O)CC(=O)C(=O)O`, the T/C (dose: 100.0 mg/kg/injection, schedule: Q04DX002 (ip), vehicle: saline with Tween-80) is reported as 98 % of control, the T/C (dose: 100.0 mg/kg/injection, schedule: Q04DX002 (ip), vehicle: saline) is reported as 101 % of control and the T/C (dose: 200.0 mg/kg/injection, schedule: Q04DX002 (ip), vehicle: saline with Tween-80) is reported as 112 % of control. For the same molecule, the T/C (dose: 200.0 mg/kg/injection, schedule: Q04DX002 (ip), vehicle: saline) was 97 % of control and the T/C (dose: 400.0 mg/kg/injection, schedule: Q04DX002 (ip), vehicle: saline with Tween-80) was 112 % of control.

`CCOc1nc2ccc(NC(C)CN3CCN(CCc4ccccc4)CC3)cc2s1` (stereo unspecified) was tested, and the T/C [13] was 109 % of control and the T/C [14] was 118 % of control.

`Cc1ccc2c(c1)C1(C)OC(C=CC1S(=O)c1ccccc1)O2` (stereo unspecified) was tested, and the T/C [13] was 102 % of control, the T/C [14] was 101 % of control and the T/C [15] was 113 % of control.

`CCCCCN(CCCCC)CC(C)(O)CNc1cc(OC)cc2cccnc12` (stereo unspecified) was tested, and the T/C (dose: 50.0 mg/kg/injection, schedule: Q01DX005 (ip), vehicle: saline) was 95 % of control and the T/C (dose: 100.0 mg/kg/injection, schedule: Q01DX005 (ip), vehicle: saline) was 87 % of control.

`Cc1c(C)[n+](=O)c2ccc(/C=N/N3CCOC3=O)cc2n1[O-]` was tested, and the T/C (dose: 6.25 mg/kg/injection, schedule: Q01DX009 (ip), vehicle: Klucel (hydroxypropylcellulose) (HPC)) was 106 % of control, the T/C (dose: 12.5 mg/kg/injection, schedule: Q01DX009 (ip), vehicle: Klucel (hydroxypropylcellulose) (HPC)) was 97 % of control and the T/C (dose: 25.0 mg/kg/injection, schedule: Q01DX009 (ip), vehicle: Klucel (hydroxypropylcellulose) (HPC)) was 102 % of control. The T/C (dose: 100.0 mg/kg/injection, schedule: Q01DX009 (ip), vehicle: Klucel (hydroxypropylcellulose) (HPC)) was 90 % of control.

With `CC(=O)Nc1ccc(/C=N/NC(=O)c2ccc(C)cc2)cc1` the T/C [1] was 103 % of control and the T/C [6] was 86 % of control.

In the case of `COc1cccc(C2Nc3ccccc3C(=O)N2N2CCOCC2)c1` (stereo unspecified), the T/C [13] is reported as 100 % of control, the T/C [14] is reported as 94 % of control and the T/C [15] is reported as 96 % of control.

For `CC(C)OC1NC(=O)Oc2ccccc21` (stereo unspecified), the T/C [2] was 104 % of control, the T/C [16] was 110 % of control and the T/C [17] was 113 % of control.

`O=C(O)CCC(=O)OCN1C(=O)C2C3C=CC(C2C1=O)C1C2C(=O)N(COC(=O)CCC(=O)O)C(=O)C2C31` (stereo unspecified) was tested, and the T/C [10] was 103 % of control and 107 % of control (2×), the T/C [11] was 115 % of control and 116 % of control and 122 % of control and the T/C (dose: 100.0 mg/kg/injection, schedule: Q01DX009 (ip), vehicle: water) was 165 % of control and 178 % of control.

`CCC(=O)Oc1ccc(/C=N/NC(N)=S)nc1` was tested, and the T/C (dose: 12.5 mg/kg/injection, schedule: Q01DX009 (ip), vehicle: saline) was 166 % of control, the T/C (dose: 25.0 mg/kg/injection, schedule: Q01DX009 (ip), vehicle: saline) was 157 % of control and the T/C [12] was 158 % of control and 164 % of control.

With `CCC1(O)OC(=O)C(C)=C1C` (stereo unspecified) the T/C (dose: 12.5 mg/kg/injection, schedule: Q04DX003 (ip), vehicle: saline) was 98 % of control, the T/C (dose: 25.0 mg/kg/injection, schedule: Q04DX003 (ip), vehicle: saline) was 95 % of control and the T/C (dose: 50.0 mg/kg/injection, schedule: Q04DX003 (ip), vehicle: saline) was 99 % of control.

In the case of `O=NN(CCCl)C(=O)NC1[C@H](O)CCC[C@@H]1O` (stereo partly specified), the T/C (dose: 0.63 mg/kg/injection, schedule: Q01DX005 (ip), vehicle: saline) is reported as 118 % of control, the T/C (dose: 2.5 mg/kg/injection, schedule: Q01DX005 (ip), vehicle: saline) is reported as 159 % of control and the T/C (dose: 5.0 mg/kg/injection, schedule: Q01DX005 (ip), vehicle: saline) is reported as 190 % of control and 267 % of control. The T/C (dose: 10.0 mg/kg/injection, schedule: Q01DX005 (ip), vehicle: saline) was 116 % of control and 206 % of control.

With `O=C1C2CC3CC4C(=O)C5CC1C1C2C3C4C51` (stereo unspecified) the T/C [6] was 94 % of control, the T/C [7] was 102 % of control and the T/C [8] was 97 % of control.

In the case of `CC(C)(C(=O)O)C(C)(C)C(=O)O`, the T/C (dose: 1.56 mg/kg/injection, schedule: Q01DX001 (ip), vehicle: saline) is reported as 102 % of control and the T/C (dose: 3.12 mg/kg/injection, schedule: Q01DX001 (ip), vehicle: saline) is reported as 101 % of control.

In the case of `C1COCCOCCOCCO1.[Cl][Sn]([Cl])([Cl])[Cl]`, the T/C (dose: 100.0 mg/kg/injection, schedule: Q01DX001 (ip), vehicle: Klucel (hydroxypropylcellulose) (HPC)) is reported as 98 % of control and the T/C (dose: 200.0 mg/kg/injection, schedule: Q01DX001 (ip), vehicle: Klucel (hydroxypropylcellulose) (HPC)) is reported as 90 % of control.
